Data reported in patent US9265773B2, “Tetracyclic heterocycle compounds and methods of use thereof for the treatment of viral diseases” (priority 2011, dated 2016).
pIC50: −log10 of the molar value.

Experiments:
[1] = system: HCV replicon genotype 1a; assay: microbe, parasite or virus in culture; assay type: cell-based; conditions: Hepatitis C virus, 96 h, genotype 1a replicon cells, incubated 96 hours, NS3/4A ELISA readout
[2] = system: HCV replicon genotype 1b; assay: microbe, parasite or virus in culture; assay type: cell-based; conditions: Hepatitis C virus, 96 h, genotype 1b replicon cells, incubated 96 hours, NS3/4A ELISA readout

SMILES | pIC50 [1] | pIC50 [2]
CNC(=O)c1c(-c2ccc(F)cc2)oc2cc(-c3ccnn3C)c(-c3ccc4c(n3)-c3cc5c(F)cccc5n3CO4)cc12 [Compound 165, 5-(11-fluoro-6H-pyrido[2′,3′:5,6][1,3]oxazino[3,4-a]indol-2-yl)-2-(4-fluorophenyl)-N-methyl-6-(1-methyl-1H-pyrazol-5-yl)benzofuran-3-carboxamide] | 7.57 | 8.01
CNC(=O)c1c(-c2ccc(F)cc2)oc2cc(-c3ccsc3)c(-c3ccc4c(n3)-c3cc5c(F)cccc5n3CO4)cc12 [Compound 166] | 7.16 | 7.57
CNC(=O)c1c(-c2ccc(F)cc2)oc2cc(-c3ccoc3)c(-c3ccc4c(n3)-c3cc5c(F)cccc5n3CO4)cc12 [Compound 167] | 7.68 | 7.77
CNC(=O)c1c(-c2ccc(F)cc2)oc2cc(N3CCCC3=O)c(-c3ccc4c(n3)-c3cc5c(F)cccc5n3CO4)cc12 [Compound 168, 5-(11-fluoro-6H-pyrido[2′,3′:5,6][1,3]oxazino[3,4-a]indol-2-yl)-2-(4-fluorophenyl)-N-methyl-6-(2-oxopyrrolidin-1-yl)benzofuran-3-carboxamide] | 8.48 | 8.55
CNC(=O)c1c(-c2ccc(F)cc2)oc2cc(N3CCCC3=O)c(-c3ccc4c(n3)-c3cc5cc(F)ccc5n3CO4)cc12 [Compound 169] | 7.85 | 8.30
CNC(=O)c1c(-c2ccc(F)cc2)oc2cc(N3CCCC3=O)c(-c3ncc4c(n3)-c3cc5c(F)cccc5n3CO4)cc12 [Compound 170] | 7.27 | 7.89
CNC(=O)c1c(-c2ccc(F)cc2)oc2cc(N3CCCC3=O)c(-c3ccc4c(c3)-c3cc5c(F)cccc5n3CO4)cc12 [Compound 171, 5-(11-fluoro-6H-benzo[5,6][1,3]oxazino[3,4-a]indol-2-yl)-2-(4-fluorophenyl)-N-methyl-6-(2-oxopyrrolidin-1-yl)benzofuran-3-carboxamide] | 7.92 | 8.33
CNC(=O)c1c(-c2ccc(F)cc2)oc2cc(N3CCOC3=O)c(-c3ccc4c(n3)-c3cc5c(F)cccc5n3CO4)cc12 [Compound 172, 5-(11-fluoro-6H-pyrido[2′,3′:5,6][1,3]oxazino[3,4-a]indol-2-yl)-2-(4-fluorophenyl)-N-methyl-6-(2-oxooxazolidin-3-yl)benzofuran-3-carboxamide] | 8.66 | 8.68
CNC(=O)c1c(-c2ccc(F)cc2)oc2cc(N3CCOC3=O)c(-c3ncc4c(n3)-c3cc5c(F)cccc5n3CO4)cc12 [Compound 173, 5-(11-fluoro-6H-pyrimido[4′,3′:5,6][1,3]oxazino[3,4-a]indol-2-yl)-2-(4-fluorophenyl)-N-methyl-6-(2-oxooxazolidin-3-yl)benzofuran-3-carboxamide] | 8.08 | 8.68
CNC(=O)c1c(-c2ccc(F)cc2)oc2cc(N3CCOC3=O)c(-c3ccc4c(n3)-c3cc5cc(F)ccc5n3CO4)cc12 [Compound 174] | 7.89 | 8.33
CNC(=O)c1c(-c2ccc(F)cc2)oc2cc(N3CCCS3(=O)=O)c(-c3ccc4c(n3)-c3cc5c(F)cccc5n3CO4)cc12 [Compound 175, 6-(1,1-dioxidoisothiazolidin-2-yl)-5-(11-fluoro-6H-pyrido[2′,3′:5,6][1,3]oxazino[3,4-a]indol-2-yl)-2-(4-fluorophenyl)-N-methylbenzofuran-3-carboxamide] | 8.28 | 8.51
CNC(=O)c1c(-c2ccc(F)cc2)oc2cc(N3CCC3=O)c(-c3ccc4c(n3)-c3cc5c(F)cccc5n3CO4)cc12 [Compound 176] | 8.10 | 8.06
CNC(=O)c1c(-c2ccc(F)cc2)oc2cc(N3CCNC3=O)c(-c3ccc4c(n3)-c3cc5c(F)cccc5n3CO4)cc12 [Compound 177, 5-(11-fluoro-6H-pyrido[2′,3′:5,6][1,3]oxazino[3,4-a]indol-2-yl)-2-(4-fluorophenyl)-N-methyl-6-(2-oxoimidazohdin-1-yl)benzofuran-3-carboxamide] | 8.34 | 8.40
CNC(=O)c1c(-c2ccc(F)cc2)oc2cc(N3CCN(C)C3=O)c(-c3ccc4c(n3)-c3cc5c(F)cccc5n3CO4)cc12 [Compound 178, 5-(11-fluoro-6H-pyrido[2′,3′:5,6][1,3]oxazino[3,4-a]indol-2-yl)-2-(4-fluorophenyl)-N-methyl-6-(3-methyl-2-oxoimidazolidin-1-yl)benzofuran-3-carboxamide] | 6.88 | 7.55
CNC(=O)c1c(-c2ccc(F)cc2)oc2cc(N3CC(=O)NC3=O)c(-c3ccc4c(n3)-c3cc5c(F)cccc5n3CO4)cc12 [Compound 179, 6-(2,4-dioxoimidazolidin-1-yl)-5-(11-fluoro-6H-pyrido[2′,3′:5,6][1,3]oxazino[3,4-a]indol-2-yl)-2-(4-fluorophenyl)-N-methylbenzofuran-3-carboxamide] | 7.49 | 8.13
CNC(=O)c1c(-c2ccc(F)cc2)oc2cc(C#N)c(-c3ccc4c(n3)-c3cc5c(F)cccc5n3CO4)cc12 [Compound 180, 6-cyano-5-(11-fluoro-6H-pyrido[2′,3′:5,6][1,3]oxazino[3,4-a]indol-2-yl)-2-(4-fluorophenyl)-N-methylbenzofuran-3-carboxamide] | 8.52 | 8.28
CNC(=O)c1c(-c2ccc(F)cc2)oc2cc(CN)c(-c3ccc4c(n3)-c3cc5c(F)cccc5n3CO4)cc12 [Compound 181] | 7.89 | 7.85
CNC(=O)c1c(-c2ccc(F)cc2)oc2cc(C(=O)OC)c(-c3ccc4c(n3)-c3cc5c(F)cccc5n3CO4)cc12 [Compound 182] | 7.62 | 7.64
CNC(=O)c1c(-c2ccc(F)cc2)oc2cc(C(N)=O)c(-c3ccc4c(n3)-c3cc5c(F)cccc5n3CO4)cc12 [Compound 183, 5-(11-fluoro-6H-pyrido[2′,3′:5,6][1,3]oxazino[3,4-a]indol-2-yl)-2-(4-fluorophenyl)-N3-methylbenzofuran-3,6-dicarboxamide] | 8.70 | 8.15

SMILES | pIC50 [1] | pIC50 [2]
CNC(=O)c1c(-c2ccc(F)cc2)oc2cc(N(CC(F)F)S(C)(=O)=O)c(-c3ccc4c(n3)-c3cc5c(F)cccc5n3CO4)cc12 [Compound 184, 6-(N-(2,2-difluoroethyl)methylsulfonamido)-5-(11-fluoro-6H-pyrido[2′,3′:5,6][1,3]oxazino[3,4-a]indol-2-yl)-2-(4-fluorophenyl)-N-methylbenzofuran-3-carboxamide] | 8.08 | 8.19
CNC(=O)c1c(-c2ccc(F)cc2)oc2cc(N(CC(F)F)S(C)(=O)=O)c(-c3ccc4c(n3)-c3cc5ccccc5n3CO4)cc12 [Compound 185] | 8.10 | 7.80
CNC(=O)c1c(-c2ccc(F)cc2)oc2cc(N(CC(F)F)S(C)(=O)=O)c(-c3ncc4c(n3)-c3cc5c(F)cccc5n3CO4)cc12 [Compound 186] | 8.36 | 8.12
CNC(=O)c1c(-c2ccc(F)cc2)oc2cc(N(CCCF)S(C)(=O)=O)c(-c3ccc4c(n3)-c3cc5ccccc5n3CO4)cc12 [Compound 187] | 8.12 | 8.03
CNC(=O)c1c(-c2ccc(F)cc2)oc2cc(N(CC(F)F)S(C)(=O)=O)c(-c3ccc4c(n3)-c3cc5c(C#N)cccc5n3CO4)cc12 [Compound 188] | 8.42 | 8.43
CNC(=O)c1c(-c2ccc(F)cc2)oc2cc(N(CCF)S(C)(=O)=O)c(-c3ccc4c(n3)-c3cc5ccccc5n3CO4)cc12 [Compound 189] | 8.54 | 8.36
CNC(=O)c1c(-c2ccc(F)cc2)oc2cc(N(CCF)S(C)(=O)=O)c(-c3ccc4c(n3)-c3cc5c(F)cccc5n3CO4)cc12 [Compound 190] | 8.55 | 8.42
CNC(=O)c1c(-c2ccc(F)cc2)oc2cc(N(CCF)S(C)(=O)=O)c(-c3ccc4c(n3)-c3cc5c(C#N)cccc5n3CO4)cc12 [Compound 191] | 8.77 | 8.66
CNC(=O)c1c(-c2ccc(F)cc2)oc2cc(N(CCCF)S(C)(=O)=O)c(-c3ccc4c(n3)-c3cc5c(F)cccc5n3CO4)cc12 [Compound 192] | 8.34 | 8.15
CNC(=O)c1c(-c2ccc(F)cc2)oc2cc(N(CCF)S(C)(=O)=O)c(-c3ncc4c(n3)-c3cc5c(F)cccc5n3CO4)cc12 [Compound 193] | 8.89 | 8.77
CNC(=O)c1c(-c2ccc(F)cc2)oc2cc(N(CCCF)S(C)(=O)=O)c(-c3ccc4c(n3)-c3cc5c(C#N)cccc5n3CO4)cc12 [Compound 194] | 8.72 | 8.64
CNC(=O)c1c(-c2ccc(F)cc2)oc2cc(N(CCCF)S(C)(=O)=O)c(-c3ncc4c(n3)-c3cc5c(F)cccc5n3CO4)cc12 [Compound 195] | 8.68 | 8.39
CNC(=O)c1c(-c2ccc(F)cc2)oc2cc(N(CCF)S(C)(=O)=O)c(-c3ncc4c(n3)-c3cc5ccccc5n3CO4)cc12 [Compound 196] | 8.74 | 8.44
CNC(=O)c1c(-c2ccc(F)cc2)oc2cc(N(CCCF)S(C)(=O)=O)c(-c3ncc4c(n3)-c3cc5ccccc5n3CO4)cc12 [Compound 197] | 8.59 | 8.36
CNC(=O)c1c(-c2ccc(F)cc2)oc2cc(N(CC(F)F)S(C)(=O)=O)c(-c3ncc4c(n3)-c3cc5ccccc5n3CO4)cc12 [Compound 198] | 8.70 | 8.25
CNC(=O)c1c(-c2ccc(F)cc2)oc2cc(N(C3COC3)S(C)(=O)=O)c(-c3ccc4c(n3)-c3cc5c(F)cccc5n3CO4)cc12 [Compound 199] | 8.33 | 8.23
CNC(=O)c1c(-c2ccc(F)cc2)oc2cc(N(CC3CC3)S(C)(=O)=O)c(-c3ccc4c(n3)-c3cc5c(F)cccc5n3CO4)cc12 [Compound 200] | 7.85 | 7.66
CNC(=O)c1c(-c2ccc(F)cc2)oc2cc(N(CCO)S(C)(=O)=O)c(-c3ccc4c(n3)-c3cc5c(F)cccc5n3CO4)cc12 [Compound 201] | 8.59 | 8.26
CNC(=O)c1c(-c2ccc(F)cc2)oc2cc(N(CC(C)O)S(C)(=O)=O)c(-c3ccc4c(n3)-c3cc5c(F)cccc5n3CO4)cc12 (stereo not shown) [Compound 202] | 8.55 | 8.06
